According to patent US12221453B2, “Substituted pyrazolo[5′,1′:2,3]pyrimido[5,4-b][1,4]oxazines as TYK2 inhibitors” (TAKEDA PHARMACEUTICAL COMPANY LIMITED, priority 2018, dated 2025):

tested on: IL-12 induced STAT4 phosphorylation mediated by TYK2/JAK2; assay: IL-12 induced pSTAT4 in human PBMC; format: cell-based; conditions: 1 hr compound, 1.7 ng/mL IL-12 for 30 minutes
Method: Human PBMC were isolated from buffy coat and are stored frozen for assays as needed. […] 15 μL of compound or DMSO was added to the well at the desired concentrations and incubated at 1 hr at 37° C. 15 μL of stimulus (final concentration of 1.7 ng/mL IL-12) was added for 30 minutes prior to pSTAT4 and total STAT4 analysis using cell lysates prepared and analyzed by MSD reagents as per manufacturer protocol. The final DMSO concentration of compound in the assay was 0.1%. The IL-12 induced pSTAT4 assay evaluates the inhibition of IL-12 induced STAT4 phosphorlyation mediated by TYK2/JAK2 ([…] complex).

IC50, < 0.1 µM:
CNc1cc(Nc2cccn([C@H]3C[C@H](F)C3)c2=O)nc2c(C(=O)N[C@H]3CC[C@H](O)C3)cnn12 [Compound I-436]
CNc1ccc(-c2cc(NC)n3ncc(C(=O)N[C@@H]4C[C@@H]4F)c3n2)n2ccnc12 [Compound I-479]
CNc1ccc(-c2cc(NC)n3ncc(C(=O)N[C@H]4CC[C@@H]4F)c3n2)n2ccnc12 [Compound I-481]
CNc1ccc(-c2cc(NC)n3ncc(C(=O)NC4CC[C@H]4F)c3n2)n2ccnc12 (stereo partly drawn) [Compound I-483]
CNc1ccc(-c2cc(NC)n3ncc(C(=O)NC4CC[C@H]4O)c3n2)n2ccnc12 (stereo partly drawn) [Compound I-484]
CNc1ccc(-c2cc(NC)n3ncc(C(=O)N[C@H]4CC[C@H]4O)c3n2)n2ccnc12 [Compound I-485]
CNc1ccc(-c2cc(NC)n3ncc(C(=O)NC4CC[C@@H]4OC)c3n2)n2ccnc12 (stereo partly drawn) [Compound I-488]
CNc1ccc(-c2cc(NC)n3ncc(C(=O)N[C@@H]4CC[C@H]4OC)c3n2)n2ccnc12 [Compound I-490]
CNc1cc(-c2cn([C@H]3C[C@@H](O)C3)c3ncccc23)nc2c(C(=O)NC3CC3)cnn12 [Compound I-495]
CNc1cc(-c2cn(C3COC3)c3ncccc23)nc2c(C(=O)NC3CC[C@@H]3F)cnn12 (stereo partly drawn) [Compound I-507]
CNc1cc(-c2cn(C3COC3)c3ncccc23)nc2c(C(=O)N[C@H]3CC[C@@H]3F)cnn12 [Compound I-508]
CNc1cc(-c2cn([C@H]3C[C@@H](O)C3)c3ncccc23)nc2c(C(=O)NC3CC[C@@H]3F)cnn12 (stereo partly drawn) [Compound I-510]
CNc1cc(-c2cn([C@H]3C[C@@H](O)C3)c3ncccc23)nc2c(C(=O)N[C@H]3CC[C@@H]3F)cnn12 [Compound I-511]
CNc1cc(-c2cn(C3CN(C)C3)c3ncccc23)nc2c(C(=O)NC3CC[C@@H]3F)cnn12 (stereo partly drawn) [Compound I-513]
CNc1cc(-c2cn(C3CN(C)C3)c3ncccc23)nc2c(C(=O)N[C@H]3CC[C@@H]3F)cnn12 [Compound I-514]
CNc1cc(-c2cn([C@H]3COC[C@@H]3OC)c3ncccc23)nc2c(C(=O)N[C@H]3CC[C@@H]3F)cnn12 [Compound I-523]
CNc1cc(-c2cn([C@H]3COC[C@@H]3OC)c3ncccc23)nc2c(C(=O)NC3CC[C@H]3F)cnn12 (stereo partly drawn) [Compound I-528]
CNc1cc(-c2cn([C@H]3COC[C@@H]3OC)c3ncccc23)nc2c(C(=O)N[C@H]3CC[C@H]3F)cnn12 [Compound I-529]
CNc1cc(-c2cn([C@H]3COC[C@@H]3OC)c3ncccc23)nc2c(C(=O)N[C@@H]3CC[C@@H]3F)cnn12 [Compound I-530]
CNc1cc(-c2cn([C@@H]3COC[C@H]3OC)c3ncccc23)nc2c(C(=O)NC3CC[C@H]3F)cnn12 (stereo partly drawn) [Compound I-531]
CNc1cc(-c2cn([C@@H]3CCOC[C@H]3O)c3ncccc23)nc2c(C(=O)N[C@H]3CC[C@@H]3F)cnn12 [Compound I-538]
CNc1cc(-c2cn([C@H]3CCOC[C@H]3OC)c3ncccc23)nc2c(C(=O)NC3CC[C@@H]3F)cnn12 (stereo partly drawn) [Compound I-546]
CNc1cc(-c2cn([C@@H]3CC3(F)F)c3ncccc23)nc2c(C(=O)NC3CC[C@H]3O)cnn12 (stereo partly drawn) [Compound I-548]
CNc1cc(-c2cn([C@@H]3CC3(F)F)c3ncccc23)nc2c(C(=O)N[C@H]3CC[C@H]3O)cnn12 [Compound I-549]
CNc1cc(-c2cn([C@H]3CC3(F)F)c3ncccc23)nc2c(C(=O)N[C@H]3CC[C@H]3O)cnn12 [Compound I-552]
CNc1cc(-c2cn(C3COC3)c3ncccc23)nc2c(C(=O)N[C@H]3CC[C@H]3O)cnn12 [Compound I-555]
CNc1cc(-c2cn(C3COC3)c3ncccc23)nc2c(C(=O)N[C@H]3CC[C@@H]3O)cnn12 [Compound I-558]
CNc1cc(-c2cn([C@@H]3COC[C@@H]3F)c3ncccc23)nc2c(C(=O)N[C@H]3CC[C@H]3O)cnn12 [Compound I-571]
CNc1cc(-c2cn([C@H]3COC[C@H]3F)c3ncccc23)nc2c(C(=O)NC3CC[C@H]3O)cnn12 (stereo partly drawn) [Compound I-573]
CNc1cc(-c2cn([C@H]3COC[C@H]3F)c3ncccc23)nc2c(C(=O)N[C@H]3CC[C@H]3O)cnn12 [Compound I-574]
CNc1cc(-c2cn([C@H]3C[C@@H](O)C3)c3ncccc23)nc2c(C(=O)N[C@H]3CC[C@@H]3OC)cnn12 [Compound I-606]
CNc1cc(-c2cn(C3CN(C)C3)c3ncccc23)nc2c(C(=O)NC3CC[C@@H]3OC)cnn12 (stereo partly drawn) [Compound I-608]
CNc1cc(-c2cn([C@@H]3CCOC3)c3ncccc23)nc2c(C(=O)NC3CC[C@@H]3OC)cnn12 (stereo partly drawn) [Compound I-609]
CNc1cc(-c2cn([C@@H]3CCOC3)c3ncccc23)nc2c(C(=O)N[C@H]3CC[C@@H]3OC)cnn12 [Compound I-610]
CNc1cc(-c2cn([C@H]3CCOC3)c3ncccc23)nc2c(C(=O)NC3CC[C@@H]3OC)cnn12 (stereo partly drawn) [Compound I-612]
CNc1cc(-c2cn([C@H]3CCOC3)c3ncccc23)nc2c(C(=O)N[C@H]3CC[C@@H]3OC)cnn12 [Compound I-613]
CNc1cc(-c2cn([C@@H]3CCN(C)C3)c3ncccc23)nc2c(C(=O)NC3CC[C@@H]3OC)cnn12 (stereo partly drawn) [Compound I-615]
CNc1cc(-c2cn([C@@H]3CCN(C)C3)c3ncccc23)nc2c(C(=O)N[C@H]3CC[C@@H]3OC)cnn12 [Compound I-616]
CNc1cc(-c2cn([C@H]3CCN(C)C3)c3ncccc23)nc2c(C(=O)NC3CC[C@@H]3OC)cnn12 (stereo partly drawn) [Compound I-618]
CNc1cc(-c2cn([C@H]3CCN(C)C3)c3ncccc23)nc2c(C(=O)N[C@H]3CC[C@@H]3OC)cnn12 [Compound I-619]
CNc1cc(-c2cn([C@@H]3COC[C@@H]3F)c3ncccc23)nc2c(C(=O)NC3CC[C@@H]3OC)cnn12 (stereo partly drawn) [Compound I-621]
CNc1cc(-c2cn([C@@H]3COC[C@@H]3F)c3ncccc23)nc2c(C(=O)N[C@H]3CC[C@@H]3OC)cnn12 [Compound I-622]
CNc1cc(-c2cn([C@H]3COC[C@H]3F)c3ncccc23)nc2c(C(=O)N[C@H]3CC[C@@H]3OC)cnn12 [Compound I-625]
CNc1cc(-c2cn([C@@H]3COC[C@H]3O)c3ncccc23)nc2c(C(=O)N[C@@H]3CC[C@H]3OC)cnn12 [Compound I-629]
CNc1cc(-c2cn([C@H]3COC[C@@H]3O)c3ncccc23)nc2c(C(=O)N[C@H]3CC[C@@H]3OC)cnn12 [Compound I-631]
CNc1cc(-c2cn([C@H]3COC[C@@H]3OC)c3ncccc23)nc2c(C(=O)NC3CC[C@@H]3OC)cnn12 (stereo partly drawn) [Compound I-633]
CNc1cc(-c2cn([C@H]3COC[C@@H]3OC)c3ncccc23)nc2c(C(=O)N[C@H]3CC[C@@H]3OC)cnn12 [Compound I-634]
CNc1cc(-c2cn([C@@H]3COC[C@H]3OC)c3ncccc23)nc2c(C(=O)NC3CC[C@@H]3OC)cnn12 (stereo partly drawn) [Compound I-636]
CNc1cc(-c2cn([C@@H]3COC[C@H]3OC)c3ncccc23)nc2c(C(=O)N[C@H]3CC[C@@H]3OC)cnn12 [Compound I-637]
CNc1cc(-c2cn([C@H]3CN(C)C[C@@H]3F)c3ncccc23)nc2c(C(=O)N[C@H]3CC[C@@H]3OC)cnn12 [Compound I-640]
CNc1cc(-c2cn([C@@H]3CN(C)C[C@H]3F)c3ncccc23)nc2c(C(=O)NC3CC[C@@H]3OC)cnn12 (stereo partly drawn) [Compound I-642]
CNc1cc(-c2cn([C@@H]3CN(C)C[C@H]3F)c3ncccc23)nc2c(C(=O)N[C@H]3CC[C@@H]3OC)cnn12 [Compound I-643]
CNc1cc(-c2cn([C@@H]3CN(C)C[C@H]3OC)c3ncccc23)nc2c(C(=O)NC3CC[C@@H]3OC)cnn12 (stereo partly drawn) [Compound I-645]
CNc1cc(-c2cn([C@@H]3CN(C)C[C@H]3OC)c3ncccc23)nc2c(C(=O)N[C@H]3CC[C@@H]3OC)cnn12 [Compound I-646]
CNc1cc(-c2cn([C@H]3CN(C)C[C@@H]3OC)c3ncccc23)nc2c(C(=O)N[C@H]3CC[C@@H]3OC)cnn12 [Compound I-649]
CNc1cc(-c2cn([C@H]3CCOC[C@@H]3F)c3ncccc23)nc2c(C(=O)NC3CC[C@@H]3OC)cnn12 (stereo partly drawn) [Compound I-651]
CNc1cc(-c2cn([C@@H]3CCOC[C@H]3F)c3ncccc23)nc2c(C(=O)NC3CC[C@@H]3OC)cnn12 (stereo partly drawn) [Compound I-652]
CNc1cc(-c2cn([C@H]3CCOC[C@@H]3OC)c3ncccc23)nc2c(C(=O)N[C@H]3CC[C@@H]3OC)cnn12 [Compound I-663]
CNc1cc(-c2cn([C@H]3CCOC[C@H]3OC)c3ncccc23)nc2c(C(=O)N[C@H]3CC[C@@H]3OC)cnn12 [Compound I-666]
CNc1cc(-c2cn([C@@H]3CCOC[C@@H]3OC)c3ncccc23)nc2c(C(=O)NC3CC[C@@H]3OC)cnn12 (stereo partly drawn) [Compound I-668]
CNc1cc(-c2cn([C@@H]3CCOC[C@@H]3OC)c3ncccc23)nc2c(C(=O)N[C@H]3CC[C@@H]3OC)cnn12 [Compound I-669]
CNc1cc(-c2cn([C@H]3CCC4(C3)OCCO4)c3ncccc23)nc2c(C(=O)NC3CC[C@@H]3OC)cnn12 (stereo partly drawn) [Compound I-671]
CNc1cc(-c2cn([C@@H]3CCC4(C3)OCCO4)c3ncccc23)nc2c(C(=O)NC3CC[C@@H]3OC)cnn12 (stereo partly drawn) [Compound I-672]
